Results on two compounds are retold here after patent publication US11547681B2, “N-acylethanolamide derivatives and uses thereof” (ELIEM THERAPEUTICS, INC., priority 2016, dated 2023).

The nature of one series: in vivo. As to conditions: male, Sprague-Dawley, rat, plasma, po, 10 mg/kg.
The subject of a further series is patients with pain. The note with it: meta-analysis of 12 PEA pain studies; placebo 21%; cited from earlier work.
A short description of series [1]: Pharmacokinetics of PEA after intravenous administration in male Sprague-Dawley rats. Type of series: in vivo, Sprague-Dawley rat. The note with it: for AUC(0-t): AUClast; for MRT last: MRTlast. Here is the method:
Rats were housed one per cage. […] Each study group was dosing in triplicate.
Samples were maintained chilled throughout processing.
Clearance (CL) was calculated from dose/AUC.

For series [2] the following is noted: male, Sprague-Dawley, rat, in vivo, po.
Protocol: (§2) PEA was also dosed intravenously at 1 mg/kg. Blood samples were collected up to 8 hours post-dose, and PEA and PEA-prodrug plasma concentrations were determined with a qualified LC-MS/MS method. Pharmacokinetic analysis was conducted by a non-compartmental model using Phoenix WinNonlin v.6.4 software.
(§3) The IV dosing solution was prepared fresh on the day of dosing at 0.5 mg/mL in a vehicle comprised of 10% solutol HS15, 10% n-methylpyrrolidone (NMP), 10% polyethylene glycol 400 (PEG400), and 70% water. For PO dosing, torpac capsules were loaded with an appropriate amount of PEA, PEA-prodrug, or normast powder. […] The prodrug dose in group 5 was the maximum amount of powder that would fit into a single capsule.
(§4) The pharmacokinetics of PEA and the PEA-prodrug were evaluated in fasted male Sprague-Dawley rats. Rats were housed one per cage. Each rat was fitted with a jugular vein cannula (JVC) for blood collection. Rats intended for IV dosing were fitted with an additional JVC for dosing. Each study group was dosing in triplicate. Rats were fasted for a minimum of twelve hours prior to dosing. Food was returned at four hours post dosing. Animals had free access to water throughout the study.
(§5) Blood samples (˜300 μL) were collected from the rats via a JVC and placed into chilled polypropylene tubes containing sodium heparin as an anticoagulant, and 30 μL of 0.5 M citric acid. Samples were maintained chilled throughout processing. Blood samples were centrifuged at 4° C. and 3,000 g for 5 minutes. Plasma (˜150 μL) was then transferred to a chilled, labeled polypropylene tube containing 15 μL of 10% formic acid, placed on dry ice, and stored in a freezer maintained at −60° C. to −80° C.
(§6) Pharmacokinetic parameters were determined with Phoenix WinNonlin (v6.4) software using a non-compartmental model. Maximum plasma concentrations (C0) after IV dosing were estimated by extrapolation of the first two time points back to t=0. […] Area under the time concentration curve (AUC) was calculated using the linear trapezoidal rule with calculation to the last quantifiable data point, and with extrapolation to infinity if applicable. […] Mean residence time, MRT, was calculated by dividing the area under the moment curve (AUMC) by the AUC. Clearance (CL) was calculated from dose/AUC. Steady-state volume of distribution (Vss) was calculated from CL*MRT (mean residence time). Bioavailability was determined by dividing the individual PO dose normalized AUClast values by the average IV AUClast value. Any samples below the limit of quantitation were treated as zero for pharmacokinetic data analysis.
(§7) Measured concentrations of PEA in plasma samples were corrected by subtracting the concentration of PEA measured in the pre-dose samples. […] Any corrected values that were negative are reported as not determined (ND).
A short description of series [3]: Simulated intestinal fluid stability, SIF containing pancreatin. It is filed as in vitro ADME. As to conditions: for % Remaining of Initial (n = 1): 1 μM; for Measured Concentration of Drug: test article dosed at 1 μM. Here is the method:
(§1) Studies were carried out in simulated intestinal fluid containing pancreatin. Simulated intestinal fluid was prepared by dissolving 6.8 g of monobasic potassium phosphate in 1.0 L of water. Pancreatin was then added to the solution and the pH was adjusted to 6.8. A DMSO stock was first prepared for the test articles. Aliquots of the DMSO solution were dosed into 300 μL of matrix, which had been pre-warmed to 37° C., at a final test article concentration of 1 μM. An individual tube was dosed for each time point. At each time point (0, 15, 30, 60, and 120 minutes), 900 μL of ice-cold acetonitrile containing 1.0% formic acid was added to an individual tube. Starting time for each tube was staggered such that all timepoints would finish at the same time. After the conclusion of the experiment, tubes were mixed and then centrifuged at 3,000 rpm for 10 minutes. Calibration standards were prepared in matched matrix. […] Analytical conditions are outlined in Appendix 11-1.
as §1, with “prepared for test articles.” for “prepared for the test articles.”, “Aliquots of DMSO solution” for “Aliquots of the DMSO solution”, “individual tube. The starting time for” for “individual tube. Starting time for”, “that all time points would finish” for “that all timepoints would finish”, “in Appendix 14-1.” for “in Appendix 11-1.”

Series [4] is described as follows: Summary of half life data (Table A), matrix not stated. It is filed as in vitro ADME.
Where [5] appears, read: male, Sprague-Dawley, rat, in vivo, iv, 1 mg/kg, Mean.
Setting [6] is: male, Sprague-Dawley, rat, in vivo, iv, 1 mg/kg, individual rats.
Where [7] appears, read: male, Sprague-Dawley, rat, in vivo, iv, 1 mg/kg, Plasma concentration of PEA, Mean.
The mark [8] stands for this setting: male, Sprague-Dawley, rat, in vivo, iv, 1 mg/kg, Plasma concentration of PEA, individual rats.

Some results are limits rather than exact numbers.

Protocol for in vivo: as §2, §3, §4, §5, §6, §7

As to `CCCCCCCCCCCCCCCC(=O)NCCO` [PEA, palmitoylethanolamide], in “in vivo”, the Cmax (as a rule, the maximum level reached in the sampled fluid or tissue) amounted to 5.3 ng/mL; the Tmax (commonly the time from dosing to the highest level) worked out at 120 min; the concentration at 1 hr was found to be 2.34 ng/mL; the concentration at 2 hr came out at 5.3 ng/mL. Further, the “treated patients achieving VAS scores <=3” value with patients with pain was 67%. The “C0, Mean” value in series [1] (PEA IV 1 mg/kg, extrapolated to t = 0) was 251 ng/mL. Moreover, the time to peak (Tmax) in series [1] (male, Sprague-Dawley, rat, in vivo, iv, 1 mg/kg) was 0 h. For the same compound, in series [1] (setting [5]), the AUC(0-t) (commonly the area under the concentration-time curve up to a stated or last time point) was determined as 62.1 ng·h/mL; the area under the curve AUC(0-inf) (usually the area under the concentration-time curve extrapolated to infinity) was determined as 68.4 ng·h/mL; the MRT last (as a rule, a mean duration of stay, worked out from the concentration-time curve) stood at 24.1 min. In series [1] (setting [6]), the exposure AUC(0-t) was 53.3 ng·h/mL, the AUC(0-inf) was 57.6 ng·h/mL and the mean residence time (MRT last) worked out at 23.9 min. For the same compound, the clearance – broadly, the rate of elimination divided by the concentration – in series [1] (male, Sprague-Dawley, rat, in vivo, iv, 1 mg/kg, CL (average clearance rate), Mean) is 252 mL/min/kg. In addition, in series [1] (male, Sprague-Dawley, rat, in vivo, iv, 1 mg/kg, CL, individual rats), the clearance is 290 mL/min/kg. In series [1] (setting [7]), the concentration at 0.083 hr was 144 ng/mL, the concentration at 0.25 hr came out at 48.2 ng/mL, the concentration at 0.5 hr was found to be 31.2 ng/mL and the concentration at 1 hr is 11.2 ng/mL. The compound also yielded a concentration at 2 hr in series [1] (setting [7]) of 6.91 ng/mL. In series [1] (setting [8]), this compound registered a concentration at 0.083 hr of 122 ng/mL, a concentration at 0.25 hr of 47.2 ng/mL, a concentration at 0.5 hr of 27.5 ng/mL and a concentration at 2 hr of 5.2 ng/mL. Moreover, the Vd (in general, a proportionality between amount in the body and measured concentration, not a real space) in series [1] (male, Sprague-Dawley, rat, in vivo, iv, 1 mg/kg, Vss (average volume of distribution), Mean) came to 9.12 ± 0.832 L/kg. Moreover, the volume of distribution (Vd) in series [1] (male, Sprague-Dawley, rat, in vivo, iv, 1 mg/kg, Vss, individual rats) was determined as 10 L/kg. Besides, the half-life (usually the time needed for the level to fall by half in the phase considered) in series [1] (male, Sprague-Dawley, rat, in vivo, iv, 1 mg/kg, t1/2 (average half-life), Mean) was 35.8 ± 9.9 min. In addition, the half-life in series [1] (male, Sprague-Dawley, rat, in vivo, iv, 1 mg/kg, t1/2, individual rats) is 33.8 min.
On to `CCCCCCCCCCCCCCCC(=O)NCCOC(=O)CCC(=O)OC[C@H](COC(=O)CCC)OC(=O)CCC` [Compound I-14], for which, in series [2], the Bioavailability is listed as 4.39%. In addition, the “Dose-normalized AUC∞ (PEA)” value in series [2] was found to be 4.81 kg·ng·h/mL/mg. The “% Remaining of Initial (n = 1)” value in series [3] (0 min) is recorded as 100%; in series [3] (15 min) it was 25%; in series [3] (30 min) it was less than 2.2%; in series [3] (60 min), less than 2.2%; in series [3] (120 min) it was less than 2.2%. Further, the “Measured Concentration of Drug” value was 0.19 µM in series [3] (0 min); 0.047 µM in series [3] (15 min); 0 µM in series [3] (30 min); 0 µM in series [3] (60 min); 0 µM in series [3] (120 min). The half-life at 1 μM in series [3] (simulated intestinal fluid containing pancreatin, pH 6.8, 1 μM) was 7.6 min. Moreover, in series [4], the half-life is 7.5 min.
